Source: patent publication US6403597B1, “Administration of phosphodiesterase inhibitors for the treatment of premature ejaculation” (Vivus, Inc., priority 1997, dated 2002)

Key:
[1] = tested on: heterosexual men suffering from primary premature ejaculation; experiment: Double-blind randomized crossover study of orally administered active agents in treating premature ejaculation (efficacy measures); format: in vivo; set-up: Anxiety score, Median: scale not given here; settings: for comparison between treatments in ejaculation latency time and sexual satisfaction score, in words: Wilcoxon signed rank test; for IVELT, Range / Anxiety score, Range: after four-week as-needed oral treatment; for IVELT, Range: baseline range 0.5-1.5; for Anxiety score, Range: baseline range 5-25; for Anxiety score, Median / Sexual satisfaction score, Median / Sexual satisfaction score, Range: after four-week treatment; for Anxiety score, Median: oral, as needed 3 to 5 hours before intercourse, clomipramine 25 mg, sertraline 50 mg, paroxetine 20 mg, sildenafil citrate 50 mg, baseline median 12; for median intravaginal ejaculation latency time: after four-week treatments, pretreatment median 1 minutes, all P<0.0001; for Sexual satisfaction score, Median / Sexual satisfaction score, Range: first nine items of EDITS questionnaire; for Sexual satisfaction score, Median: higher scores = greater satisfaction; for IVELT, Median: intravaginal ejaculation latency time after four-week as-needed oral treatment, baseline median 1; for delay of intravaginal ejaculation latency time, in words: treatment on an as needed basis; for IVELT during washout periods, Median / IVELT during washout periods, Range: two-week washout period after the treatment
Description: (§1) A double-blind randomized crossover study was performed with 31 heterosexual men suffering from primary premature ejaculation, defined for the purpose of the study as an intravaginal ejaculation latency time (IVELT) of less than 2 minutes. Exclusion criteria included the following: (a) history of a psychiatric disorder; (b) current physical illness; (c) previous surgery or drug therapy with an active agent known to affect sexual function; (d) current substance abuse; (e) patients with secondary premature ejaculation combined with erectile dysfunction. All patients were asked not to use condoms or topical penile applications.
(§2) Treatment phases comprised five four-week consecutive treatment periods, each separated by a two-week washout period. […] The patients were randomly assigned to receive clomipramine hydrocloride (25 mg), sertraline hydrochloride (50 mg), paroxetine hydrochloride (20 mg), or sildenafil citrate (50 mg), or instructed to use the pause-squeeze technique developed by Masters and Johnson (Masters and Johnson, Human Sexual Inadequacy, Little, Brown & Company, Boston, Mass., 1970). The drugs were administered as needed 3 to 5 hours before planned intercourse and not more than twice a week. The pause-squeeze technique was used during intercourse. Each patient was randomly assigned to receive any of the available treatments as the first treatment and a sequence of treatment regimens. The assignment was unknown by the patient. Subjects were asked to complete a questionnaire regarding intravaginal ejaculation latency time of the last two consecutive experiences of intercourse, frequency of intercourse and possible side effects. The first nine items of the sexual satisfaction questionnaire designed by Althof et al. (Althof et al.(1999), “EDITS: Development of Questionnaires for Evaluating Satisfaction with Treatment for Erectile Dysfunction,” Urology 53:[…]) was used to measure the degree of sexual satisfaction, with higher scores indicating greater satisfaction. All measurements were obtained before treatment, after each treatment and after each washout period. Twenty healthy men who reported a sexual history free of symptoms of premature ejaculation served as a control group.
(§3) Statistical analysis: The variables in this study were statistically processed using the SPSS program for MicroSoft Windows®, standard version, release 8.0. The data were subjected to the Kolmogorov-Smirnov one-sample test, to test for normal distribution. […] Nonparametric statistical tests were used to assess differences in the measurements. Friedman's two-way analysis of variance was used for comparison between all the treatment periods. Wilcoxon signed rank test was used for evaluation of measures between baseline and after each treatment and also between every two treatment periods. The relationship between parameters was quantified by using the Spearman rank correlation coefficient. Chi-square and Fisher exact tests were used for comparison of the incidence of side effects among different treatments. Student's t-test and Chi-square test were used for comparison between the study group and control group. A two-tailed P-value <0.05 was considered significant.

[2] = tested on: heterosexual men suffering from primary premature ejaculation; settings: male, human, in vivo, 4 weeks; for No. patients with side effects / patients with side effects (%): po
Description: as §1, §2, §3

SMILES	comparison between treatments in ejaculation latency time and sexual satisfaction score, in words [1]	IVELT, Range [1]	Anxiety score, Range [1]	Anxiety score, Median [1]	median intravaginal ejaculation latency time [1] [min]	Sexual satisfaction score, Median [1]	Sexual satisfaction score, Range [1]	IVELT, Median [1] [min]	patients with prolongation of IVELT (%) ([1]; of 31 men)	delay of intravaginal ejaculation latency time, in words [1]	IVELT during washout periods, Median [1] [min]	IVELT during washout periods, Range [1]	Side effects (no.): dry mouth [2]	Side effects (no.): nausea [2]	No. patients with side effects [2]	patients with side effects (%) [2] [%]	Side effects (no.): drowsiness [2]	also measured
Fc1ccc([C@@H]2CCNC[C@H]2COc2ccc3c(c2)OCO3)cc1 [Paroxetine, paroxetine]	superior to the pause-squeeze technique	(2-10) min	(5-23)	9	4	12	(0-29)	4	80.6%	statistically significant and clinically relevant delay	1	(0.5-2) min	2	1	5	17.2		comparison between treatments in ejaculation latency time and sexual satisfaction score, in words ([1]; listed as paroxetine): more or less equivalent to each other; Side effects (no.): yawning [2]: 2
CN(C)CCCN1c2ccccc2CCc2ccc(Cl)cc21 [Clomipramine, clomipramine]	more or less equivalent to each other	(1-8) min	(4-22)	11	4	11	(0-25)	4	71%	statistically significant and clinically relevant delay	1	(0.5-1.5) min	3	1	7	25	1	Side effects (no.): sleepiness [2]: 2
CCCc1nn(C)c2c(=O)[nH]c(-c3cc(S(=O)(=O)N4CCN(C)CC4)ccc3OCC)nc12 [Sildenafil, 5-[2-ethoxy-5-(4-methyl-1-piperazinylsulphonyl)phenyl]-1-methyl-3-n-propyl-1,6-dihydro-7H-pyrazolo[4,3-dipyrimidin-7-one]]		(5-30) min	(4-15)	8	15	30	(17-34)	15	over 90%	statistically significant and clinically relevant delay	1.75	(0.5-8) min			5	17.9		median IVELT, median sexual satisfaction score and median IVELT during the washout period, according to Friedman's test, in words ([1]; comparison between all treatment periods): significant increase; effectiveness in the treatment of premature ejaculation, in words ([1]; in vivo): highly effective; patients with prolongation of IVELT (number of patients) ([1]; of 31 men): 28 patients; patients with prolongation of IVELT (%) ([1]; of 31 men, listed as sildenafil): 90.3%; factor by which IVELT was increased, on average ([1]; versus pretreatment): 15; Side effects (no.): flushing [2]: 2; Side effects (no.): headache [2]: 2; Side effects (no.): nasal congestion [2]: 1
CN[C@H]1CC[C@@H](c2ccc(Cl)c(Cl)c2)c2ccccc21 [Sertraline, sertraline]	more or less equivalent to each other	(1-10) min	(5-22)	11	3	10	(0-31)	3	71.2%	statistically significant and clinically relevant delay	1	(0.5-2) min		1	3	10.3	1	Side effects (no.): anorexia [2]: 1
